Here are results for two compounds from patent US6350780B1, “Methods and compositions for drug delivery” (Allergan Sales, Inc., priority 1995, dated 2002).

Assay [1] concerns eye of a mammal suffering high intraocular pressure. The assay can be described thus: intraocular pressure after instillation into the eye of a mammal suffering high intraocular pressure. Format: in vivo. As to conditions: topical instillation in ophthalmically acceptable carrier; mammal with high intraocular pressure. As for the experimental part:
This compound comprises the calcium chelator BAPTA blocked with three acetoxymethyl ester (AM) moieties, and containing a single N-linked pACE group in place. The compound is dissolved in an ophthalmically acceptable carrier for topical delivery to the eye. As indicated above, such prodrug-pACE compounds are specifically targeted to cilliary epithelial and retinal cells, without substiantially affecting other cell types. In the above formulation, based on Formula B, the compound will bind acetylcholine receptors and cell surface acetylcholinesterase without being hydrolyzed thereby. The electronically neutral prodrug is then transported or permitted to penetrate the cell membrane, where cytoplasmic esterases convert the prodrug-pACE into the tetraacetic acid form of BAPTA capable of modulating the intracellular concentration of free Ca^++, thereby providing a neuroprotective function.
The compound is instilled into the eye of a mammal suffering high intraocular pressure. The prodrug-pACE compound passes through the cornea and the drug is concentrated within ciliary epithelial and retinal ganglion cells.

The subject of assay [2] is cultured human non-pigmented ciliary epithelial (NPE) cells. The assay can be described thus: regulatory volume decrease (RVD) following hyposmotic swelling of cultured NPE cells. Type of assay: cell-based. Particulars: 20 µM BAPTA-AM loaded 30 minutes in isosmotic (290 mOsm) solution, then hyposmotic (198 mOsm) solution; cell volume by Coulter Counter; FIG. 1. As for the experimental part: In this example, NPE cells were loaded in an isosmotic (290 mOsm) solution containing 20 µM BAPTA-AM for 30 minutes prior to suspension in a hyposmotoic (198 mOsm) solution. Control cells were subjected to the same hyposmotic solution but without prior loading with BAPTA. Changes in cell volume were measured using a Coulter Counter interfaced to a Coulter Channelyzer. It is noted that, following osmotic swelling, control cells regulate towards their original isosmotic volume while BAPTA-loaded cells remain swollen. The above findings indicate that intracellular BAPTA via chelation of Ca^2+i inhibits solute and osmotically obliged H2O efflux. Because the Ca^2+i-dependent ion flux pathways activated following osmotic cell swelling of NPE cells are involved in aqueous secretion, BAPTA will inhibit aqueous humor formation and, thus, lower IOP.

On to `CC(=O)OCOC(=O)CN(CC(=O)OCOC(C)=O)c1ccccc1OCCOc1ccccc1N(CC(=O)OCOC(C)=O)CC(=O)OCOC(=O)CCC(=O)C(C)(C)C` [Example 2], for which the “intraocular pressure following treatment versus prior to treatment” value in assay [1] is listed as “significantly lower”. As to `CC(=O)OCOC(=O)CN(CC(=O)OCOC(C)=O)c1ccccc1OCCOc1ccccc1N(CC(=O)OCOC(C)=O)CC(=O)OCOC(C)=O` [BAPTA-AM, acetoxymethyl ester of BAPTA], in assay [2], the “effect on regulatory volume decrease (RVD)” value was “totally depress”.
